Laboratory results as given in patent publication US20220251085A1, “CYSTEINE BINDING COMPOSITIONS AND METHODS OF USE THEREOF” (University of Virginia Patent Foundation, priority 2019, published 2022).

Legend:
[1] = test system: DM93 cells lysates (soluble fractions); assay: Lysate activity of purine probes, gel-based (in-gel fluorescence); format: biochemical; conditions: for protein labeling activity in lysates: DM93 soluble fractions, 25 μM, 2 hrs, 37° C.; for reactivity of N7 versus N9 tautomers / labeling compared to AHL-Pu-5 and AHL-Pu-6: lysates; for labeling compared to AHL-Pu-5 and AHL-Pu-6: 6-chloro versus 2-chloro
Procedure: Lysate Activity Method: DM93 cells were grown at 37° C. in 5% CO2 until 90% confluent. Once confluent, cells were scraped and washed 3× times with cold PBS and lysed in PBS+protease inhibitor. Lysates were spun at 100,000×g for 45 minutes. Soluble fractions were treated with 25 μM of halogenated purine probes (unless stated) for 2 hrs (unless stated) at 37° C. Purine probe modified proteins were conjugated to rhodamine-azide by CuAAC, subjected to SDS-PAGE analysis, and detected by in-gel fluorescence scanning. SDS-PAGE gels were stained with Coomassie brilliant blue to determine protein load.

[2] = HPLC assay for profiling solution reactivity and stability of purine fragments (probes) with amino acid mimetics; format: physicochemical; conditions: for adducts formed, based on HPLC traces / reaction kinetics compared to N9 counterparts / effect of amine group at the 2 position on electrophilic character: butanethiol; for reaction kinetics compared to N9 counterparts: versus Pu-2, Pu-4, Pu-10; for reaction with butanethiol: cysteine mimetic, on ice 6 h; for effect of position of the halogen leaving group on reactivity: 6 position versus 2 position (Pu-3 versus Pu-5, Pu-4 versus Pu-6)
Procedure: HPLC assay for profiling solution reactivity and stability of purine fragments: The following reagents were prepared and stored on ice prior to use. 0.1 molar (M) solution of caffeine in acetonitrile, 1.0 M solution of amino acid mimetic (butanethiol—cysteine mimetic; n-butylamine—lysine mimetic; p-cresol—tyrosine mimetic; propionamide-asparagine/glutamine mimetic; butyric acid—aspartic/glutamic acid mimetic), tetramethylguanidine (TMG), 1 M acetic acid (HOAc) in acetonitrile (ACN) and 10 mM solution of purine fragment in ACN mixture. 500 μL of fragment solution were transferred to a dram vial on ice. To the mixture, 5.5 μL of TMG and 5.5 μL of respective amino acid mimetic were added and solutions were stirred on ice for 6 h. To monitor reactivity, 50 μL aliquots were removed at indicated time points and quenched with 10 μL of a 1:1 mixture of caffeine and HOAc. Samples were injected (1 μL) and analyzed by reverse-phase HPLC on a Shimadzu 1100 Series spectrometer (Shimadzu Corporation, Kyoto, Japan) with UV detection at 254 nm. Reaction progress was evaluated by monitoring consumption of starting material (purine fragment) normalized to caffeine standard. Chromatographic separation was performed using a Phenomenex Kinetex C18 column (2.6 μm, 50×4.6 mm; Phenomenex, Torrance, Calif., United States of America). Mobile phases A and B were composed of H2O+0.1% HOAc and ACN+0.1% HOAc, respectively. […] All purine fragment peak AUCs used for calculations were normalized to caffeine standard AUCs at respective time points to account for run-to-run variations by HPLC. The amount of purine fragment consumed (% starting material) was plotted as a function of time.
Discussion: An HPLC assay for determining the reactivity of the purine-based probes with mimetics of amino acid residues was performed. […] Reaction progress was monitored by monitoring the disappearance of starting material and appearance of product via HPLC.

DM93 cells = assay: Live cell activity of purine probes, gel-based (CuAAC rhodamine-azide, in-gel fluorescence); conditions: for labeling profile in live cells: DM93 cells, 25 μM, 4 hours; for reactivity of N7 versus N9 tautomers / probe labeling compared to Pu-5 and Pu-6: live DM93 cells; for probe labeling compared to Pu-5 and Pu-6: 6-chloro versus 2-chloro
Procedure: Live Cell Activity Method: DM93 cells were grown at 37° C. in 5% CO2 until 90% confluent. Once confluent cells were washed with serum free media and treated with halogenated purine probes at a final concentration of 25 μM (unless stated) for 4 hours (unless stated). Cells were then scraped and washed 3× with cold PBS and lysed in PBS+protease inhibitor. Lysates were spun at 100,000×g for 45 minutes. Halogen probe-modified proteins in soluble fractions were visualized by conjugating rhodamine-azide using copper-catalyzed azide-alkyne cycloaddition (CuAAC; 1 hour, room temperature), subjected to SDS-PAGE, and detected by in-gel fluorescence scanning. SDS-PAGE gels were also stained with Coomassie brilliant blue to determine protein load. All samples were loaded with equivalent amounts of protein. Thus, changes in purine probe labeling is not due to loading of different proteome amounts.

SMILES	adducts formed, based on HPLC traces [2]	reaction with butanethiol [2]	effect of position of the halogen leaving group on reactivity [2]	protein labeling activity in lysates [1]	reactivity of N7 versus N9 tautomers [1]	reaction kinetics compared to N9 counterparts [2]	labeling profile in live cells (DM93 cells)	reactivity of N7 versus N9 tautomers (DM93 cells)	labeling compared to AHL-Pu-5 and AHL-Pu-6 [1]	probe labeling compared to Pu-5 and Pu-6 (DM93 cells)	effect of amine group at the 2 position on electrophilic character [2]
C#CCn1cnc2c(Cl)nc(F)nc21 [Pu-10, 6-chloro-2-fluoro-9-(prop-2-yn-1-yl)-9H-purine]	likely form many different adducts	react with butanethiol		highest protein labeling activity			robust labeling profiles				
C#CCn1cnc2nc(N)nc(Cl)c21 [Pu-7, 6-chloro-2-amino-7-(prop-2-yn-1-yl)-7H-purine]											dramatically reduces the electrophilic character
C#CCn1cnc2c(Cl)nc(N)nc21 [Pu-8, 2-Amino-6-chloro-9-(prop-2-yn-1-yl)-9H-purine]											dramatically reduces the electrophilic character

The next lines start with results.

adducts formed, based on HPLC traces [2]	reaction with butanethiol [2]	effect of position of the halogen leaving group on reactivity [2]	SMILES	protein labeling activity in lysates [1]	reactivity of N7 versus N9 tautomers [1]	reaction kinetics compared to N9 counterparts [2]	labeling profile in live cells (DM93 cells)	reactivity of N7 versus N9 tautomers (DM93 cells)	labeling compared to AHL-Pu-5 and AHL-Pu-6 [1]	probe labeling compared to Pu-5 and Pu-6 (DM93 cells)	effect of amine group at the 2 position on electrophilic character [2]
likely form many different adducts	react with butanethiol		C#CCn1cnc2nc(F)nc(Cl)c21 [Pu-9, 6-chloro-2-fluoro-7-(prop-2-yn-1-yl)-7H-purine]	highest protein labeling activity	more reactive	accelerated reaction kinetics	robust labeling profiles	more reactive			
	react with butanethiol	the 6 position enhances reactivity	C#CCn1cnc2ncnc(Cl)c21 [Pu-3, 6-Chloro-7-(prop-2-yn-1-yl)-7H-purine]		more reactive	accelerated reaction kinetics		more reactive	Increased labeling	Enhanced probe labeling	
		the 6 position enhances reactivity	C#CCn1cnc2c(Cl)ncnc21 [Pu-4, 6-Chloro-9-(prop-2-yn-1-yl)-9H-purine]						Increased labeling	Enhanced probe labeling	
